In this experiment the target is SARS-CoV-2 NSP3 Mac1 (Severe acute respiratory syndrome coronavirus 2, UniProt P0DTD1). The experiment in a line: biochemical. Type of experiment: binding. The note with it: for inhibition at 125 µM: read-out: Inhibition at top concentration of 125 µM (%); for inhibition at 187 µM: read-out: Inhibition at top screening concentration of 187 µM; for inhibition at 25 µM: BioAscent virtual screening hit compounds.

The mark [1] stands for this setting: MIDAS hit compounds and analogues.
The mark [2] stands for this setting: MIDAS hit compounds and analogues, top concentration 125 µM, 8-point 1:1 dilution, duplicate, read-out: IC50.
Setting [3] is: MIDAS hit compounds and analogues, top concentration 125 µM, 8-point 1:1 dilution, duplicate.
The mark [4] stands for this setting: BioAscent hit compounds, confirmatory IC50 curves.
Setting [5] is: BioAscent hit compounds, top concentration 187 µM, 8-point 1:1 dilution, duplicate, read-out: IC50.
Where [6] appears, read: FDA-approved compound library primary screen, 50 µM, single shot.

Several values for one entry are separate records, joined by “and”; a condition that tells them apart may be missing. Equal entries are not always repeated. Structures can show the parent of a compound that is named as a salt. Where two headings read alike, the source gives them in different places.

This is an account of results in publication PMC9965906, “Discovery and Development Strategies for SARS-CoV-2 NSP3 Macrodomain Inhibitors” (Pathogens, 2023).

The IC50 is the midpoint of a concentration-inhibition curve. Broadly, the Hill slope is a measure of the steepness of the concentration-response curve.

For the compound `Cn1ccc2c(-c3ccc(C(=O)N4CCOCC4)o3)ccnc21` [IAL-MD0131, O=C(C1=CC=C(C2=C3C(N(C)C=C3)=NC=C2)O1)N4CCOCC4], under setting [1], the “Inhibition at top concentration of 125 µM (%)” value (“Inhibition … of 125 µM (%)” below) is given as “Not measurable due to compound precipitation”. Further, the IC50 under setting [2] stood at 4.9 µM.

As to `Cn1ccc2c(-c3ccc(C(=O)NC4CC4)o3)ccnc21` [IAL-MD0132, O=C(NC1CC1)C2=CC=C(C3=C4C(N(C)C=C4)=NC=C3)O2], under setting [1], the “Inhibition … of 125 µM (%)” value is given as “Not measurable due to compound precipitation”. The IC50 under setting [2] stood at 7.2 µM.

Take `CN(C)C(=O)c1ccc(-c2ccnc3c2ccn3C)o1` [IAL-MD0133, O=C(N(C)C)C1=CC=C(C2=C3C(N(C)C=C3)=NC=C2)O1]: the “Inhibition … of 125 µM (%)” value under setting [1] is on record as “Not measurable due to compound precipitation”. Further, the IC50 under setting [2] is 8.5 µM.

Turning to `CCCCNC(=O)c1ccc(-c2cc(N)nc3[nH]ccc23)o1` [IAL-MD0134, O=C(NCCCC)C1=CC=C(C2=C3C(NC=C3)=NC(N)=C2)O1], the inhibition at 125 µM under setting [1] is 77.8%. The IC50 under setting [2] is 25 µM and 25.3 µM.

On to `CN(C)C(=O)c1cncc(-c2ccnc3c2ccn3C)n1` [IAL-MD0135, O=C(C1=NC(C2=C3C(N(C)C=C3)=NC=C2)=CN=C1)N(C)C], for which, under setting [1], the inhibition at 125 µM stood at 18.3%. Moreover, the “IC50 in µM” value under setting [3] is given as “Not measurable”.

`Cn1ccc2c(-c3ncccc3C(N)=O)ccnc21` [IAL-MD0136, O=C(N)C1=C(C2=C3C(N(C)C=C3)=NC=C2)N=CC=C1]: the inhibition at 125 µM under setting [1] was determined as 49.7%. Moreover, under setting [3], the “IC50 in µM” value is “Not measurable”.

Turning to `Cn1ccc2c(-c3cncc(C(=O)N4CCCCC4)n3)ccnc21` [IAL-MD0137, O=C(C1=CN=CC(C2=C3C(N(C)C=C3)=NC=C2)=N1)N4CCCCC4], the inhibition at 125 µM under setting [1] was determined as 25.8%. In addition, the “IC50 in µM” value under setting [3] is reported as “Not measurable”.

Regarding `Cn1ccc2c(-c3ncccc3C(=O)N3CCCCC3)ccnc21` [IAL-MD0138, O=C(C1=CC=CN=C1C2=C3C(N(C)C=C3)=NC=C2)N4CCCCC4], under setting [1], the inhibition at 125 µM worked out at 79.4%. Further, the IC50 under setting [2] amounted to 36 µM.

Regarding `Cn1ccc2c(-c3cc(C(=O)N4CCCC4)ccn3)ccnc21` [IAL-MD0139, O=C(C1=CC(C2=C3C(N(C)C=C3)=NC=C2)=NC=C1)N4CCCC4], the inhibition at 125 µM under setting [1] worked out at 21.7%. Under setting [3], the “IC50 in µM” value is “Not measurable”.

With `CN(C)C(=O)c1ccc(-c2ccnc3c2ccn3C)nc1` [IAL-MD0140, O=C(N(C)C)C1=CN=C(C2=C3C(N(C)C=C3)=NC=C2)C=C1], the “Inhibition … of 125 µM (%)” value under setting [1] is given as “Not measurable due to compound precipitation”. The IC50 under setting [2] is 6.9 µM.

Regarding `CN(C)C1CCN(C(=O)c2ccc(-c3ncnc4[nH]ccc34)cc2)C1` (centres unmarked) [IAL-MD0141, O=C(N1CC(N(C)C)CC1)C2=CC=C(C3=C4C(NC=C4)=NC=N3)C=C2.O=CO], the inhibition at 125 µM under setting [1] turned out to be 81.3%. The IC50 under setting [2] was determined as 25.2 µM.

With `Cn1ccc2c(-c3ccc(C(=O)N4CCCC4)cn3)ccnc21` [IAL-MD0142, O=C(C1=CN=C(C2=C3C(N(C)C=C3)=NC=C2)C=C1)N4CCCC4], the inhibition at 125 µM under setting [1] stood at 37.9%. Moreover, the “IC50 in µM” value under setting [3] is “Not measurable”.

In the case of `CC(=O)N1CCN(C(=O)c2ccc(-c3ncnc4[nH]ccc34)cc2)CC1` [IAL-MD0143, O=C(C1=CC=C(C2=C3C(NC=C3)=NC=N2)C=C1)N4CCN(C(C)=O)CC4], the inhibition at 125 µM under setting [1] stood at 71.9%. In addition, the IC50 under setting [2] was 45 µM.

Consider `CCN(C)C(=O)c1ccc(-c2ccnc3c2ccn3C)nc1` [IAL-MD0144, O=C(N(CC)C)C1=CN=C(C2=C3C(N(C)C=C3)=NC=C2)C=C1], for which, under setting [1], the inhibition at 125 µM was 23.8%. Besides, the “IC50 in µM” value under setting [3] is recorded as “Not measurable”.

Turning to `Cn1ccc2c(-c3ccc(Cn4ccnc4)cn3)ccnc21` [IAL-MD0145, CN1C=CC2=C(C3=NC=C(CN4C=CN=C4)C=C3)C=CN=C21], the inhibition at 125 µM under setting [1] came to 81.1%. Besides, the IC50 under setting [2] came out at 14 µM.

In the case of `CN1CCN(C(=O)c2cncc(-c3ccnc4c3ccn4C)n2)CC1` [IAL-MD0146, O=C(C1=CN=CC(C2=C3C(N(C)C=C3)=NC=C2)=N1)N4CCN(C)CC4], the inhibition at 125 µM under setting [1] is 3.7%. For the same compound, the “IC50 in µM” value under setting [3] is “Not measurable”.

As for `CCNC(=O)c1ccc(-c2ccnc3c2ccn3C)o1` [IAL-MD0147, O=C(NCC)C1=CC=C(C2=C3C(N(C)C=C3)=NC=C2)O1], under setting [1], the “Inhibition … of 125 µM (%)” value is reported as “Not measurable due to compound precipitation”. Further, the concentration for half-maximal inhibition (IC50) under setting [2] was 6.8 µM.

On to `CCCNC(=O)c1ccc(-c2ccnc3c2ccn3C)o1` [IAL-MD0148, O=C(NCCC)C1=CC=C(C2=C3C(N(C)C=C3)=NC=C2)O1], for which the “Inhibition … of 125 µM (%)” value under setting [1] is recorded as “Not measurable due to compound precipitation”. For the same compound, under setting [2], the IC50 was found to be 7.7 µM.

Regarding `CC(=O)c1ccc(-c2ccc(N)cc2)s1` [IAL-MD0305, CC(=O)c1ccc(-c2ccc(N)cc2)s1], where the note is “BioAscent hit compounds”, the inhibition at 187 µM was found to be 63.1%. Besides, the Hill slope under setting [4] is recorded as 0.6. For the same compound, the IC50 under setting [5] worked out at 28 µM. For the same compound, the inhibition at 25 µM (duplicate) worked out at 56.2%.

Turning to `COc1cc2c(cc1/C=C/C(=O)O)OC(C)C2` (centres unmarked) [IAL-MD0306, COc1cc2c(cc1/C=C/C(=O)O)OC(C)C2], the inhibition at 187 µM (BioAscent hit compounds) was 81.3%. The Hill slope under setting [4] is 0.8. For the same compound, under setting [5], the IC50 worked out at 18 µM. For the same compound, the inhibition at 25 µM (duplicate) came to 63.7%.

Regarding `C=C1c2cccc(O)c2C(=O)C2=C(O)[C@]3(O)C(=O)C(C(N)=O)=C(O)[C@@H](N(C)C)[C@@H]3[C@@H](O)[C@H]12` [Methacycline hydrochloride, reference compound], under setting [6], the “NSP3 Mac1 inhibition at 50 µM (%)” value was determined as 87% and the inhibition at 50 µM came out at 86.8%. Also, the “outcome of dose-response titration” value (FDA-approved hit compounds, top concentration 125 µM) is given as “strong assay interference”.

With `O=C1c2c(O)ccc(O)c2C(=O)c2c(NCCNCCO)ccc(NCCNCCO)c21` [Mitoxantrone hydrochloride, reference compound], the IC50 (FDA-approved hit compounds re-supplied, top concentration 125 µM, read-out: IC50) was 14.1 µM and ~14 µM.

As for `NC(=O)c1ccc[n+]([C@@H]2O[C@H](COP(=O)([O-])OP(=O)(O)OC[C@H]3O[C@@H](n4cnc5c(N)ncnc54)[C@H](O)[C@@H]3O)[C@@H](O)[C@H]2O)c1` [Nadide, reference compound], under setting [6], the “NSP3 Mac1 inhibition at 50 µM (%)” value came to 100% and the inhibition at 50 µM came out at 99.9%.

On to `CN1CCCN=C1/C=C/c1cccc(O)c1` [Oxantel pamoate, reference compound], for which the IC50 is 11.7 µM and 12 µM. Moreover, under setting [6], the “NSP3 Mac1 inhibition at 50 µM (%)” value turned out to be 56% and the inhibition at 50 µM amounted to 55.9%. Moreover, the Hill slope (FDA-approved hit compounds, confirmatory HTRF assays) was 1.34.

As for `CC(=O)[O][Hg][c]1ccccc1` [Phenylmercuric acetate, reference compound], the “NSP3 Mac1 inhibition at 50 µM (%)” value is listed as 58.1%.

As to `C=CC1=C(C)c2cc3[nH]c(cc4nc(cc5[nH]c(cc1n2)c(C)c5CCC(=O)O)C(CCC(=O)O)=C4C)c(C)c3C=C` [Protoporphyrin IX, reference compound], under setting [6], the inhibition at 50 µM turned out to be 75%.

In the case of `O=C(O)c1cc(O)c2c(c1)[C@H]([C@H]1c3cc(C(=O)O)cc(O)c3C(=O)c3c(O[C@@H]4O[C@H](CO)[C@@H](O)[C@H](O)[C@H]4O)cccc31)c1cccc(O[C@@H]3O[C@H](CO)[C@@H](O)[C@H](O)[C@H]3O)c1C2=O` [Sennoside A, reference compound], under setting [6], the “NSP3 Mac1 inhibition at 50 µM (%)” value was 112% and the inhibition at 50 µM is 112%.

As to `Nc1ccc(S(=O)(=O)[O-])cc1.Nc1ccc(S(=O)(=O)[O-])cc1.O.O.O.O.[Zn+2]` [Sulfanilate zinc, reference compound], under setting [6], the “NSP3 Mac1 inhibition at 50 µM (%)” value is on record as 44.2%.
